Results reported in patent US5945436A, “Pyridylmethyl nitriles, amides and thioamides useful as fungicides” (Uniroyal Chemical Company, Inc., priority 1997, dated 1999).

What was measured:
[1] = test system: Erysiphe graminis; assay: Powdery mildew of barley, systemic root uptake (BMS); type: in vivo; details: 45 ml of 250 mg/l, 8 days after inoculation
How it was run: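 Pot soil of barley (BMS) and cucumber (CMS) plants was drenched with 45 ml of a 250 mg/l acetone/Tween 20 aqueous emulsion, with untreated plants as controls. Disease was scored on a rating scale that included intermediate grades.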

[2] = test system: Uromyces phaseoli; assay: Bean rust fungus eradicant test (URO PHA); type: in vivo; details: pinto bean, eradicant spray 2 days after inoculation, 1,000 mg/l; for pest or weed control at 1000 µg/mL: Uromyces phaseoli, 216 h, read-out: Percent Reduction of Disease, URO PHA
How it was run: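 Seven-day-old pinto bean plants (Phaseolus vulgaris, primary leaf) were inoculated with 20,000 spores/ml, held 24 h at 99% humidity and 21° C., then sprayed two days post-inoculation with acetone/TWEEN 20 emulsions at 1,000 mg/l. After nine days in a 21° C. greenhouse, disease was scored as percent reduction versus unsprayed controls.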

[3] = test system: Erysiphe polygoni; assay: Powdery mildew on pinto bean, foliar application (ERY POL); type: in vivo; details: similar procedure as barley (1,000 mg/l); for pest or weed control at 1000 µg/mL: Erysiphe polygoni, read-out: Percent Reduction of Disease, ERY POL
How it was run: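 Pinto bean plants sprayed with compound emulsion (acetone or inert solvent, TWEEN 20, water) at 1,000 mg/l, or left unsprayed, dried, then inoculated with Erysiphe polygoni spores in a 21° C greenhouse. Disease scored; percent control computed against untreated controls.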

[4] = test system: Erysiphe graminis; assay: Powdery mildew in barley, foliar application (ERY GRA); type: in vivo; details: foliar, 1,000 mg/l, 8 days after inoculation; for pest or weed control at 1000 µg/mL: Blumeria graminis, foliar, 192 h, read-out: Percent Reduction of Disease, ERY GRA
How it was run: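 'Robust' barley plants sprayed with acetone/TWEEN 20 aqueous emulsion at 1,000 mg/l, dried, then kept at 21° C in a greenhouse. Inoculated by distributing Erysiphe graminis spores from infected plants. Percent control computed from disease scores vs unsprayed control pots.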

[5] = test system: Pythium ultimum; assay: Fungal growth inhibition, treated disc on agar (PYT ULT); type: cell-based; details: disc dipped in 500 mg/l, 29° C.; for inhibition at 500 µg/mL: Globisporangium ultimum, read-out: Percent Growth Inhibition, PYT ULT
From the text: (§1) Filter paper discs, each 11 mm. in diameter, were dipped in each of the test solutions. The discs were allowed to air dry to drive off the acetone solvent. A number of untreated discs were used as controls.
(§2) The treated and untreated discs were then placed on agar plates and one of the following fungus species: Septoria nodorum (SEP NOD), Botrytis cinerea (BOT CIN), Fusarium oxysporum (FUS OXY), Pythium ultimum (PYT ULT), Rhizoctonia solani (RHI SOL), Colletotrichum gossypii (COL GOS), and Scierotinia minor (SCL MIN), was added to the center of each disc in the form of a culture plug with the fungus mat in contact with the paper of the test disc. Cercosporidium personatum (CER PER), was added to discs as a spore suspension (20,000 spores/ml) to the disc (two drops of spore suspension per disc), rather than a mycelial culture plug. The plates were then incubated at 29° C. in an oven.
(§3) With the exception of the discs containing Cercosporidium personatum, the discs were evaluated by first measuring the radius from the center of the fungus colony on the treated discs and on the untreated discs. Percent growth inhibition of each of the compounds tested was determined as a function of the difference between the radius of the fungus colony on the treated disc versus the radius of the fungus colony on the untreated disc.

[6] = test system: Rhizoctonia solani; assay: Fungal growth inhibition, treated disc on agar (RHI SOL); type: cell-based; details: disc dipped in 500 mg/l, 29° C.; for inhibition at 500 µg/mL: Rhizoctonia solani, read-out: Percent Growth Inhibition, RHI SOL
From the text: as §1, §2, §3

[7] = test system: Fusarium oxysporum; assay: Fungal growth inhibition, treated disc on agar (FUS OXY); type: cell-based; details: disc dipped in 500 mg/l, 29° C.; for inhibition at 500 µg/mL: Fusarium oxysporum, read-out: Percent Growth Inhibition, FUS OXY

| Compound | Percent Reduction of Disease, BMS [1] | pest or weed control at 1000 µg/mL [2] | pest or weed control at 1000 µg/mL [3] | pest or weed control at 1000 µg/mL [4] | inhibition at 500 µg/mL [5] | inhibition at 500 µg/mL [6] | inhibition at 500 µg/mL [7] | Percent Reduction of Disease, URO PHA [2] | Percent Reduction of Disease, ERY POL [3] | Percent Reduction of Disease, ERY GRA [4] | Percent Growth Inhibition, PYT ULT [5] | Percent Growth Inhibition, RHI SOL [6] | Percent Growth Inhibition, FUS OXY [7] |
| --- | --- | --- | --- | --- | --- | --- | --- | --- | --- | --- | --- | --- | --- |
| C#CCC(C#N)(CCc1ccc(OC)cc1)c1cccnc1 (stereo not shown) [Compound 38] | 0% | 0% | 92% | 83% | 100% | 0% | 100% | – | – | – | – | – | – |
| CC(C)CC(C#N)(CCc1ccc(F)cc1)c1cccnc1 (stereo not shown) [Compound 39] | 0% | 92% | 92% | 92% | 44% | 11% | 30% | – | – | – | – | – | – |
| C=CCC(C#N)(CCc1ccc(OCC)cc1)c1cccnc1 (stereo not shown) [Compound 40] | 0% | 17% | 92% | 67% | 61% | 0% | 100% | – | – | – | – | – | – |
| C#CCC(C#N)(CCc1ccc(F)cc1)c1cccnc1 (stereo not shown) [Compound 41] | 0% | 0% | 100% | 92% | 9% | 26% | 30% | – | – | – | – | – | – |
| CCCCC(C#N)(CCc1ccc(OCC)cc1)c1cccnc1.Cl (stereo not drawn) [Compound 42, α-butyl-4-ethoxy-α-(3-pyridinyl)-benzenebutanenitrile hydrochloride] | 0% | – | – | – | – | – | – | 33% | 100% | 92% | 3% | 32% | 100% |
| CCOc1ccc(CCC(C#N)(CC(C)C)c2cccnc2)cc1 (stereo not shown) [Compound 43] | 0% | 83% | 92% | 92% | 36% | 48% | 100% | – | – | – | – | – | – |
| CCCCCCC(C#N)(CCc1ccc(OCC)cc1)c1cccnc1 (stereo not shown) [Compound 44] | 0% | 92% | 90% | 83% | 89% | 30% | 8% | – | – | – | – | – | – |
| CCCCCCC(C#N)(CCc1ccc(F)cc1)c1cccnc1 (stereo not shown) [Compound 45] | 0% | 92% | 90% | 92% | 89% | 6% | 14% | – | – | – | – | – | – |
| CCCC(C#N)(CCc1ccc(OCC)cc1)c1cccnc1 (stereo not shown) [Compound 46] | 0% | 33% | 90% | 92% | 59% | 8% | 100% | – | – | – | – | – | – |
| CC(C)=CCC(C#N)(CCc1ccc(F)cc1)c1cccnc1 (stereo not shown) [Compound 47] | 0% | 33% | 90% | 70% | 100% | 45% | 50% | – | – | – | – | – | – |
| COc1ccc(CCC(C#N)(CC=C(C)C)c2cccnc2)cc1 (stereo not shown) [Compound 48] | 0% | 83% | 90% | 67% | 53% | 28% | 100% | – | – | – | – | – | – |
| CC(C)CCC(C#N)(CCc1ccc(F)cc1)c1cccnc1 (stereo not shown) [Compound 49] | 0% | – | 90% | 100% | – | – | 65% | 83% | – | – | 76% | 100% | – |
| COCC(C#N)(CCc1ccc(OC)cc1)c1cccnc1 (stereo not shown) [Compound 50] | 0% | 90% | 100% | 80% | 10% | 20% | 100% | – | – | – | – | – | – |
| COCC(C#N)(CCc1ccc(F)cc1)c1cccnc1 (stereo not shown) [Compound 51] | 90% | 20% | 85% | 91% | 0% | 30% | 100% | – | – | – | – | – | – |
| N#CC(CCc1ccc(F)cc1)(CC(F)(F)F)c1cccnc1 (stereo not shown) [Compound 52] | 100% | 70% | 100% | 100% | 0% | 100% | 100% | – | – | – | – | – | – |
| N#CC(CCF)(CCc1ccc(F)cc1)c1cccnc1 (stereo not shown) [Compound 53] | 100% | 0% | 90% | 100% | 5% | 75% | 100% | – | – | – | – | – | – |
| CCCCOc1ccc(CCC(C#N)(CCCC)c2cccnc2)cc1 (stereo not shown) [Compound 54] | 0% | 35% | 90% | 100% | 5% | 100% | 100% | – | – | – | – | – | – |
| CC(C)CCC(C#N)(CCc1ccc(F)cc1)c1cccnc1 (stereo not shown) [Compound 55] | 75% | – | – | – | – | – | – | 0% | 85% | 100% | 20% | 50% | 65% |
| C=CCC(C#N)(CCc1ccc(OCCCC)cc1)c1cccnc1 (stereo not shown) [Compound 56] | 0% | 0% | 90% | 90% | 5% | 45% | 60% | – | – | – | – | – | – |
| CCCCOc1ccc(CCC(C#N)(CCC)c2cccnc2)cc1 (stereo not shown) [Compound 57] | 0% | 0% | 90% | 90% | 5% | 40% | 55% | – | – | – | – | – | – |
| CCCCOc1ccc(CCC(C#N)(CC(C)C)c2cccnc2)cc1 (stereo not shown) [Compound 58] | 0% | 0% | 85% | 90% | 0% | 5% | 40% | – | – | – | – | – | – |
| CC=CCC(C#N)(CCc1ccc(F)cc1)c1cccnc1 (stereo not shown) [Compound 59] | 75% | 35% | 90% | 100% | 5% | 5% | 100% | – | – | – | – | – | – |
| CCCCCC(C#N)(CCc1ccc(F)cc1)c1cccnc1 (stereo not shown) [Compound 60] | 75% | 50% | 90% | 100% | 50% | 100% | 20% | – | – | – | – | – | – |
| C#CCC(CCc1ccccc1)(C(N)=S)c1cccnc1 (stereo not drawn) [Compound 61, α-(2-phenylethyl)-α-(2-propynyl)-3-pyridinethanethioamide] | 20% | 0% | 100% | 100% | 100% | 80% | 100% | – | – | – | – | – | – |
| CCCCCC(CCc1ccc(F)cc1)(C(N)=O)c1cccnc1 (stereo not shown) [Compound 62] | 20% | 35% | 100% | 0% | 5% | 5% | 10% | – | – | – | – | – | – |
